Test results taken from US20030181527A1, “Novel formulations of alpha-2,4-disulfophenyl-n-tert-butylnitrone” (priority 2000, published 2003).

Legend:
[1] = Stability of 100 mg/ml aqueous solution with added factors (chelating agent, antioxidant, oxygen removal, pH); type: physicochemical
Procedure: The effects of several added factors were investigated in experiments designed using a multivariate technique. An aqueous solution of α-(2,4-disulfophenyl)-N-tert-butylnitrone disodium salt (100 mg/ml) containing less than 0.3% 2,4-disulphobenzaldehyde disodium salt (II) was placed in sealed 10 ml glass vials with a fill volume of 10 ml. The concentrations of the degradation products and particularly of 2,4-disulphobenzaldehyde disodium salt (II) were measured by a chromatographic method after accelerated storage conditions at +40° C. and 75% relative humidity for two months.
Values are mean±standard deviation. n indicates the number of independent experiments. A t-test was performed to evaluate the significance of the different factors.

[2] = Stability with air or nitrogen filled headspaces (Table 5); type: physicochemical; settings: 400 mg/ml
Procedure: A 400 mg/ml concentrate of α-(2,4-disulfophenyl)-N-tert-butylnitrone disodium salt was prepared by adding α-(2,4-disulfophenyl)-N-tert-butylnitrone disodium salt (1500 g) to water for injection (2200 ml) containing dissolved disodium hydrogen phosphate dihydrate (3.51 g). The solution was then adjusted to pH 8.5 by the addition of 2M sodium hydroxide solution and then water for injection was added to give a final volume of 3750 ml. After preparation, the solution was purged with nitrogen for 90 minutes and then placed in 10 ml glass vials with a fill volume of 7.7 ml. Before stoppering the vials, the headspace was purged with nitrogen. […] The vials were stored either at +5° C. at ambient humidity or at +25° C. and 60% relative humidity.
A second batch of 400 mg/ml concentrate of α-(2,4-disulfophenyl)-N-tert-butylnitrone disodium salt buffered with 50 mM phosphate buffer was treated identically except that the headspace was filled with air not nitrogen and the fill volume was 10.5 ml.

[3] = Effect of concentration on stability, phosphate-buffered solutions at +5° C.; type: physicochemical; settings: 50 mM phosphate buffer
Procedure: In a third study aqueous solutions of α-(2,4-disulfophenyl)-N-tert-butylnitrone disodium salt (concentration either 200 mg/ml or 400 mg/ml) buffered with phosphate buffer (50 mM) were dispensed into 10 ml glass vials and stored at +5° C.

[4] = Effect of pH on stability of diluted 4 mg/ml solutions at room temperature; type: physicochemical
Description: The pH dependent degradation of aqueous solutions of α-(2,4-disulfophenyl)-N-tert-butylnitrone disodium salt has been extensively studied. […] Both solutions, which were obtained by appropriate dilution of a corresponding concentrate, were stored at room temperature under conditions that would reasonably simulate a diluted concentrate prepared ready for administration to patients.

E. coli = assay: Antimicrobial efficacy (European Pharmacopoeia 2000, Chapter 5.1.3); type: cell-based
Procedure: The antimicrobial efficacy was tested for three different solutions: […] iii) a carbonate buffer control. The tests were performed according to European Pharmacopoeia 2000, Chapter 5.1.3, pages 259 to 260. Seven 10 ml vials were inoculated, one per test organism. During the tests, the vials were stored at controlled room temperature and protected from light. At different time intervals, samples were withdrawn and after appropriate dilutions the numbers of viable microorganisms (colony forming units per ml, CFU/ml) were determined using standard plate count procedures.

[5] = 4 mg/ml buffered with phosphate (0.53 mM), 0 days
[6] = 4 mg/ml buffered with phosphate (0.53 mM), 1 day
[7] = 4 mg/ml buffered with phosphate (0.53 mM), 2 days
[8] = 4 mg/ml buffered with phosphate (0.53 mM), 5 days
[9] = 4 mg/ml buffered with phosphate (0.53 mM), 7 days
[10] = 4 mg/ml unbuffered solution, 0 days
[11] = 4 mg/ml unbuffered solution, 1 day
[12] = 4 mg/ml unbuffered solution, 2 days
[13] = 4 mg/ml unbuffered solution, 5 days
[14] = 4 mg/ml unbuffered solution, 7 days

- Initial content of 2,4-disulphobenzaldehyde disodium salt (II) ([1]; 100 mg/ml aqueous solution, before storage): less than 0.3%
- Final Amount of Aldehyde (II) ([1]; 100 mg/ml, added EDTA, pH 7.0 to 8.8, 2 months +40° C./75% RH): 2.27 ± 0.12 area %
- Final Amount of Aldehyde (II) ([1]; 100 mg/ml, added ascorbate, pH 7.0 to 7.3, 2 months +40° C./75% RH): 1.32 ± 0.11 (p < 0.001) area %
- Final Amount of Aldehyde (II) ([1]; 100 mg/ml, added factor none, pH 7.0 to 8.2, 2 months +40° C./75% RH): 2.20 ± 0.11 area %
- Final Amount of Aldehyde (II) ([1]; 100 mg/ml, nitrogen purge, pH 7.0 to 8.6, 2 months +40° C./75% RH): 1.34 ± 0.18 (p < 0.001) area %
- Effect of pH on the degree of decomposition ([1]; pH 7 to 9, 100 mg/ml, 2 months +40° C./75% RH): no significant effect
- Amount of Aldehyde (II) ([2]; 50 mM phosphate, air-filled headspace, fill 10.5 ml, +5° C., 0 months): 0.3 area %
- Amount of Aldehyde (II) ([2]; 50 mM phosphate, air-filled headspace, fill 10.5 ml, +5° C., 3 months): 0.3 area %
- Amount of Aldehyde (II) ([2]; 50 mM phosphate, air-filled headspace, fill 10.5 ml, +5° C., 6 months): 0.5 area %
- Amount of Aldehyde (II) ([2]; 50 mM phosphate, air-filled headspace, fill 10.5 ml, +5° C., 12 months): 0.4 area %
- Amount of Aldehyde (II) ([2]; 50 mM phosphate, air-filled headspace, fill 10.5 ml, +25° C./60% RH, 0 months): 0.3 area %
- Amount of Aldehyde (II) ([2]; 50 mM phosphate, air-filled headspace, fill 10.5 ml, +25° C./60% RH, 3 months): 0.7 area %
- Amount of Aldehyde (II) ([2]; 50 mM phosphate, air-filled headspace, fill 10.5 ml, +25° C./60% RH, 6 months): 1.0 area %
- Amount of Aldehyde (II) ([2]; 50 mM phosphate, air-filled headspace, fill 10.5 ml, +25° C./60% RH, 12 months): 0.7 area %
- Amount of Aldehyde (II) ([2]; pH 8.5, nitrogen-filled headspace, fill 7.7 ml, +5° C., 0 months): 0.2 area %
- Amount of Aldehyde (II) ([2]; pH 8.5, nitrogen-filled headspace, fill 7.7 ml, +5° C., 3 months): 0.2 area %
- Amount of Aldehyde (II) ([2]; pH 8.5, nitrogen-filled headspace, fill 7.7 ml, +5° C., 6 months): 0.2 area %
- Amount of Aldehyde (II) ([2]; pH 8.5, nitrogen-filled headspace, fill 7.7 ml, +5° C., 12 months): 0.3 area %
- Amount of Aldehyde (II) ([2]; pH 8.5, nitrogen-filled headspace, fill 7.7 ml, +25° C./60% RH, 0 months): 0.2 area %
- Amount of Aldehyde (II) ([2]; pH 8.5, nitrogen-filled headspace, fill 7.7 ml, +25° C./60% RH, 3 months): 0.4 area %
- Amount of Aldehyde (II) ([2]; pH 8.5, nitrogen-filled headspace, fill 7.7 ml, +25° C./60% RH, 6 months): 0.3 area %
- Amount of Aldehyde (II) ([2]; pH 8.5, nitrogen-filled headspace, fill 7.7 ml, +25° C./60% RH, 12 months): 0.5 area %
- Amount of Aldehyde (II) ([3]; 200 mg/ml, 0 months): 0.1 Area %
- pH ([3]; 200 mg/ml, 0 months): 8.0
- Amount of Aldehyde (II) ([3]; 200 mg/ml, 6 months): 0.4 Area %
- pH ([3]; 200 mg/ml, 6 months): 7.9
- Amount of Aldehyde (II) ([3]; 200 mg/ml, 12 months): 0.6 Area %
- pH ([3]; 200 mg/ml, 12 months): 7.9
- Amount of Aldehyde (II) ([3]; 200 mg/ml, 18 months): 0.7 Area %
- pH ([3]; 200 mg/ml, 18 months): 8.0
- Amount of Aldehyde (II) ([3]; 400 mg/ml, 0 months): 0.1 Area %
- pH ([3]; 400 mg/ml, 0 months): 8.0
- Amount of Aldehyde (II) ([3]; 400 mg/ml, 6 months): 0.3 Area %
- pH ([3]; 400 mg/ml, 6 months): 7.8
- Amount of Aldehyde (II) ([3]; 400 mg/ml, 12 months): 0.4 Area %
- pH ([3]; 400 mg/ml, 12 months): 7.8
- Amount of Aldehyde (II) ([3]; 400 mg/ml, 18 months): 0.4 Area %
- pH ([3]; 400 mg/ml, 18 months): 7.9
- Amount of Aldehyde (II) [4, 5]: 0.8 Area %
- pH [4, 5]: 8.0
- Amount of Aldehyde (II) [4, 6]: 0.9 Area %
- pH [4, 6]: 7.9
- Amount of Aldehyde (II) [4, 7]: 0.9 Area %
- pH [4, 7]: 7.7
- Amount of Aldehyde (II) [4, 8]: 1.0 Area %
- pH [4, 8]: 7.5
- Amount of Aldehyde (II) [4, 9]: 1.1 Area %
- pH [4, 9]: 7.5
- Amount of Aldehyde (II) [4, 10]: 0.9 Area %
- pH [4, 10]: 6.8
- Amount of Aldehyde (II) [4, 11]: 1.1 Area %
- pH [4, 11]: 6.8
- Amount of Aldehyde (II) [4, 12]: 1.2 Area %
- pH [4, 12]: 6.8
- Amount of Aldehyde (II) [4, 13]: 1.6 Area %
- pH [4, 13]: 6.8
- Amount of Aldehyde (II) [4, 14]: 2.0 Area %
- pH [4, 14]: 6.7
SMILES: CC(C)(C)[N+]([O-])=Cc1ccc(S(=O)(=O)[O-])cc1S(=O)(=O)[O-].[Na+].[Na+] [α-(2,4-disulfophenyl)-N-tert-butylnitrone disodium salt]
- Number of CFUs per ml - Time after Inoculation (E. coli; 10 mg/ml, 6 h): 9.0 × 10^5 CFUs per ml
- Number of CFUs per ml - Time after Inoculation (E. coli; 10 mg/ml, 24 h): 5.0 × 10^4 CFUs per ml
- Number of CFUs per ml - Time after Inoculation (E. coli; 10 mg/ml, 48 h): ≦10 CFUs per ml
- Number of CFUs per ml - Time after Inoculation (E. coli; 10 mg/ml, 7 days): <1 CFUs per ml
- Number of CFUs per ml - Time after Inoculation (E. coli; 10 mg/ml, 14 days): <1 CFUs per ml
- Number of CFUs per ml - Time after Inoculation (E. coli; 10 mg/ml, 21 days): <1 CFUs per ml
- Number of CFUs per ml - Time after Inoculation (E. coli; 10 mg/ml, 28 days): <1 CFUs per ml
- Number of CFUs per ml - Time after Inoculation (E. coli; 10 mg/ml, <1 min): 1.5 × 10^6 CFUs per ml
- Number of CFUs per ml - Time after Inoculation (E. coli; 400 mg/ml, 6 h): 4.1 × 10^4 CFUs per ml
- Number of CFUs per ml - Time after Inoculation (E. coli; 400 mg/ml, 24 h): <1 CFUs per ml
- Number of CFUs per ml - Time after Inoculation (E. coli; 400 mg/ml, 48 h): <1 CFUs per ml
- Number of CFUs per ml - Time after Inoculation (E. coli; 400 mg/ml, 7 days): <1 CFUs per ml
- Number of CFUs per ml - Time after Inoculation (E. coli; 400 mg/ml, 14 days): <1 CFUs per ml
- Number of CFUs per ml - Time after Inoculation (E. coli; 400 mg/ml, 21 days): <1 CFUs per ml
- Number of CFUs per ml - Time after Inoculation (E. coli; 400 mg/ml, 28 days): <1 CFUs per ml
- Number of CFUs per ml - Time after Inoculation (E. coli; 400 mg/ml, <1 min): 3.8 × 10^5 CFUs per ml
